According to patent US20260098061A1, “EPHA2-BINDING PENDING PEPTIDE AND COMPOSITION COMPRISING SAME” (PeptiDream Inc., priority 2022, published 2026):
Bridge positions count the residues as written; N and C are the ends. Square brackets hold non-standard residues; d marks the D form. Peptide text beside a SMILES is read from it. * marks the point of attachment. NH(1-deoxy-D-glucityl) = OC[C@@H](O)[C@@H](O)[C@H](O)[C@@H](O)CN*; Trp(1-Me,7-Cl) = Cn1cc(C[C@H](N)C(=O)O)c2cccc(Cl)c21; Ala(2-NH2-4-pyridyl) = Nc1cc(C[C@H](N)C(=O)O)ccn1; dPhe(3-CONH2) = NC(=O)c1cccc(C[C@@H](N)C(=O)O)c1; Trp(1-Me) = Cn1cc(C[C@H](N)C(=O)O)c2ccccc21; 3Pal(6-NH2) = Nc1ccc(C[C@H](N)C(=O)O)cn1; NMe3Pal = CN[C@@H](Cc1cccnc1)C(=O)O; NMeF = CN[C@@H](Cc1ccccc1)C(=O)O; hCit = NC(=O)NCCCC[C@H](N)C(=O)O; 4Pal = N[C@@H](Cc1ccncc1)C(=O)O; Cba = N[C@@H](CC1CCC1)C(=O)O

Biological target: T1, Recombinant Human EphA2 Fc Protein (Homo sapiens, UniProt P29317)
T1 construct: purchased Elabscience
Test: SPR interaction analysis (Biacore T200), kinetics of peptides against EphA2
Format: binding
Settings: Recombinant Human EphA2 Fc Protein captured by Human Antibody Capture kit; single-cycle kinetics; 25° C.; HBS-P+ buffer with 1% DMSO
In short: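 KD derived from ka and kd, fitted on baseline-subtracted sensorgrams from single-cycle kinetics of five peptide dilutions. Running buffer: HBS-P+ (pH 7.4) plus 1% DMSO, 25° C, Biacore T200. Recombinant human EphA2-Fc held on an antibody capture surface.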

`CC(C)C[C@@H]1NC(=O)[C@H](Cc2ccncc2)NC(=O)[C@H](Cc2ccccc2)NC(=O)CSC[C@@H](C(=O)NCC(N)=O)NC(=O)[C@H](Cc2cn(C)c3ccccc23)NC(=O)[C@H](Cc2ccccc2)N(C)C(=O)[C@H](Cc2cn(C)c3ccccc23)NC(=O)CNC1=O` [PDC_EphA2-00020295-L092, F-4Py-L-G-W1Me-MeF-W1Me-C-G-NH2] ({CH2CO}-F[4Pal]LG[Trp(1-Me)][NMeF][Trp(1-Me)]CG-NH2; thioether N-8) and `CC(C)C[C@@H]1NC(=O)[C@H](Cc2ccnc(N)c2)NC(=O)[C@H](Cc2ccccc2)NC(=O)CSC[C@@H](C(=O)NCC(N)=O)NC(=O)[C@H](Cc2cn(C)c3ccccc23)NC(=O)[C@H](Cc2ccccc2)N(C)C(=O)[C@H](Cc2cn(C)c3ccccc23)NC(=O)[C@H](CCCCNC(N)=O)NC1=O` [PDC_EphA2-00022601, F-4Py2NH2-L-Hcit-W1Me-MeF-W1Me-C-G-NH2] ({CH2CO}-F[Ala(2-NH2-4-pyridyl)]L[hCit][Trp(1-Me)][NMeF][Trp(1-Me)]CG-NH2; thioether N-8) fall in the same range of Kd: 100 to 400 nM for the first, 100 to 400 nM for the second.

`CC(C)C[C@@H]1NC(=O)[C@H](Cc2ccnc(N)c2)NC(=O)[C@H](Cc2ccccc2)NC(=O)CSC[C@@H](C(N)=O)NC(=O)[C@H](Cc2cn(C)c3ccccc23)NC(=O)[C@H](Cc2ccccc2)N(C)C(=O)[C@H](Cc2cn(C)c3ccccc23)NC(=O)[C@H](CCCCNC(N)=O)NC1=O` [PDC_EphA2-00020708, F-4Py2NH2-L-Hcit-W1Me-MeF-W1Me-C-NH2] ({CH2CO}-F[Ala(2-NH2-4-pyridyl)]L[hCit][Trp(1-Me)][NMeF][Trp(1-Me)]C-NH2; thioether N-8) and `CC(=O)NCCCC[C@H](NC(=O)[C@@H]1CSCC(=O)N[C@@H](Cc2ccccc2)C(=O)N[C@@H](Cc2ccnc(N)c2)C(=O)N[C@@H](CC(C)C)C(=O)N[C@@H](CCCCNC(N)=O)C(=O)N[C@@H](Cc2cn(C)c3ccccc23)C(=O)N(C)[C@@H](Cc2ccccc2)C(=O)N[C@@H](Cc2cn(C)c3ccccc23)C(=O)N1)C(N)=O` [PDC_EphA2-00022602, F-4Py2NH2-L-Hcit-W1Me-MeF-W1Me-C-KAc-NH2] ({CH2CO}-F[Ala(2-NH2-4-pyridyl)]L[hCit][Trp(1-Me)][NMeF][Trp(1-Me)]CK(Ac)-NH2; thioether N-8) fall in the same range of Kd: 100 to 400 nM for the first, 100 to 400 nM for the second.

First: C[C@H]1NC(=O)CSC[C@@H](C(=O)NCC(N)=O)NC(=O)[C@H](Cc2cn(C)c3ccccc23)NC(=O)[C@H](CCCCNC(N)=O)NC(=O)[C@H](Cc2cn(C)c3ccccc23)NC(=O)[C@H](CC(N)=O)NC(=O)[C@H]([C@@H](C)O)NC(=O)[C@H](CC2CCC2)NC(=O)[C@H](CC(N)=O)NC(=O)[C@H](Cc2ccccc2)N(C)C1=O [PDC_EphA2-00021407-L092, da-MeF-N-Cba-T-N-W1Me-Hcit-W1Me-C-G-NH2] ({CH2CO}-[dA][NMeF]N[Cba]TN[Trp(1-Me)][hCit][Trp(1-Me)]CG-NH2; thioether N-10)
Second: CC(C)C[C@@H]1NC(=O)[C@H](CC(N)=O)NC(=O)[C@H](Cc2c[nH]cn2)NC(=O)[C@H](Cc2ccccc2)NC(=O)CSC[C@@H](C(=O)NCC(N)=O)NC(=O)[C@H](Cc2cn(C)c3ccccc23)NC(=O)[C@H](CCCCNC(N)=O)NC(=O)[C@H](Cc2cn(C)c3ccccc23)NC(=O)[C@H](Cc2ccccc2)N(C)C(=O)[C@H](CO)NC1=O [PDC_EphA2-00022606, F-H-N-L-S-MeF-W1Me-Hcit-W1Me-C-G-NH2] ({CH2CO}-FHNLS[NMeF][Trp(1-Me)][hCit][Trp(1-Me)]CG-NH2; thioether N-10)
The Kd of the first is higher: 100 to 400 nM for the first, 10 to 100 nM for the second.

`CC(C)C[C@@H]1NC(=O)[C@H](CC(N)=O)NC(=O)[C@H](Cc2ccncc2)NC(=O)[C@H](Cc2ccccc2)NC(=O)CSC[C@@H](C(=O)NCC(N)=O)NC(=O)[C@H](Cc2cn(C)c3ccccc23)NC(=O)[C@H](Cc2ccc(N)nc2)NC(=O)[C@H](Cc2cn(C)c3ccccc23)NC(=O)[C@H](Cc2ccccc2)N(C)C(=O)[C@H](CCC(=O)O)NC1=O` [PDC_EphA2-00022057-L092, F-4Py-N-L-E-MeF-W1Me-3Py6NH2-W1Me-C-G-NH2] ({CH2CO}-F[4Pal]NLE[NMeF][Trp(1-Me)][3Pal(6-NH2)][Trp(1-Me)]CG-NH2; thioether N-10) and `CC(C)C[C@@H]1NC(=O)[C@H](CC(N)=O)NC(=O)[C@H](Cc2c[nH]cn2)NC(=O)[C@H](Cc2ccccc2)NC(=O)CSC[C@@H](C(N)=O)NC(=O)[C@H](Cc2cn(C)c3ccccc23)NC(=O)[C@H](CCCCNC(N)=O)NC(=O)[C@H](Cc2cn(C)c3ccccc23)NC(=O)[C@H](Cc2ccccc2)N(C)C(=O)[C@H](CO)NC1=O` [PDC_EphA2-00022417, F-H-N-L-S-MeF-W1Me-Hcit-W1Me-C-NH2] ({CH2CO}-FHNLS[NMeF][Trp(1-Me)][hCit][Trp(1-Me)]C-NH2; thioether N-10) fall in the same range of Kd: 10 to 100 nM for the first, 10 to 100 nM for the second.

Compared with `CC(=O)NCCCC[C@@H](NC(=O)[C@@H]1CSCC(=O)N[C@@H](Cc2ccccc2)C(=O)N[C@@H](Cc2ccnc(N)c2)C(=O)N[C@@H](CC(C)C)C(=O)N[C@@H](CCCCNC(N)=O)C(=O)N[C@@H](Cc2cn(C)c3ccccc23)C(=O)N(C)[C@@H](Cc2ccccc2)C(=O)N[C@@H](Cc2cn(C)c3ccccc23)C(=O)N1)C(N)=O` [PDC_EphA2-00022603, F-4Py2NH2-L-Hcit-W1Me-MeF-W1Me-C-dkAc-NH2] ({CH2CO}-F[Ala(2-NH2-4-pyridyl)]L[hCit][Trp(1-Me)][NMeF][Trp(1-Me)]C[dK](Ac)-NH2; thioether N-8), `CC(=O)NCCCC[C@H](NC(=O)[C@@H]1CSCC(=O)N[C@@H](Cc2ccccc2)C(=O)N[C@@H](Cc2c[nH]cn2)C(=O)N[C@@H](CC(N)=O)C(=O)N[C@@H](CC(C)C)C(=O)N[C@@H](CO)C(=O)N(C)[C@@H](Cc2ccccc2)C(=O)N[C@@H](Cc2cn(C)c3ccccc23)C(=O)N[C@@H](CCCCNC(N)=O)C(=O)N[C@@H](Cc2cn(C)c3ccccc23)C(=O)N1)C(N)=O` [PDC_EphA2-00022607, F-H-N-L-S-MeF-W1Me-Hcit-W1Me-C-KAc-NH2] ({CH2CO}-FHNLS[NMeF][Trp(1-Me)][hCit][Trp(1-Me)]CK(Ac)-NH2; thioether N-10) is lower in Kd: 100 to 400 nM for the first, 10 to 100 nM for the second.

First: CC(=O)NCCCC[C@@H](NC(=O)[C@@H]1CSCC(=O)N[C@@H](Cc2ccccc2)C(=O)N[C@@H](Cc2c[nH]cn2)C(=O)N[C@@H](CC(N)=O)C(=O)N[C@@H](CC(C)C)C(=O)N[C@@H](CO)C(=O)N(C)[C@@H](Cc2ccccc2)C(=O)N[C@@H](Cc2cn(C)c3ccccc23)C(=O)N[C@@H](CCCCNC(N)=O)C(=O)N[C@@H](Cc2cn(C)c3ccccc23)C(=O)N1)C(N)=O [PDC_EphA2-00022608, F-H-N-L-S-MeF-W1Me-Hcit-W1Me-C-dkAc-NH2] ({CH2CO}-FHNLS[NMeF][Trp(1-Me)][hCit][Trp(1-Me)]C[dK](Ac)-NH2; thioether N-10)
Second: CC(C)C[C@@H]1NC(=O)[C@H](CC(N)=O)NC(=O)[C@H](Cc2cccnc2)N(C)C(=O)[C@@H](Cc2cccc(C(N)=O)c2)NC(=O)CSC[C@@H](C(N)=O)NC(=O)[C@H](CC(N)=O)NC(=O)[C@H]([C@@H](C)O)NC(=O)[C@H](Cc2cn(C)c3ccccc23)NC(=O)[C@H](CCC(=O)NC[C@H](O)[C@@H](O)[C@H](O)[C@H](O)CO)NC(=O)[C@H](Cc2cn(C)c3c(Cl)cccc23)NC(=O)[C@H](Cc2ccccc2)N(C)C(=O)[C@H](CC(N)=O)NC1=O [PDC_EphA2-00026424, df3CON-Me3Py-N-L-N-Me3Py-W1Me7Cl-Qglucamine-W1Me-T-N-C-NH2] ({CH2CO}-[dPhe(3-CONH2)][NMe3Pal]NLN[NMeF][Trp(1-Me,7-Cl)]E(NH(1-deoxy-D-glucityl))[Trp(1-Me)]TNC-NH2; thioether N-12)
The Kd of the first is higher: 10 to 100 nM for the first, less than 1 nM for the second.
